Test results as given in patent publication US20250034130A1, “Crystal Form of Tolebrutinib, Preparation Method Therefor and Use Thereof” (Principia Biopharma Inc., priority 2021, published 2025).
Entries after “also recorded” stand apart in the source; their conditions may differ. Values belong to the compound of their own block, whether it stands above or below them.

Assays:
Format in all cases: physicochemical
[1] = Physical and chemical stability on storage in opened packages (purity by UPLC, solid form by XRPD); conditions: for Chemical purity after storage (in words): 60° C./75% RH (b74 also name 80° C. and light)
Protocol: X-ray powder diffraction patterns in the present disclosure were acquired by a Bruker X-ray powder diffractometer. The parameters of the X-ray powder diffraction method of the present disclosure are as follows: • X-Ray: Cu, Kα • Kα1 (Å): 1.54060; Kα2 (Å): 1.54439 • Kα2/Kα1 intensity ratio: 0.50
(§1) The related substance in the present disclosure was detected by UPLC and the parameters are shown below.
Said “room temperature” is not a specific temperature, but a temperature range of 10-30° C. Said “open packaged” is putting the sample into a glass vial, covering the vial with aluminum foil, and punching 5-10 holes on the foil.
(§2) Form CSII of the present disclosure and the prior art amorphous form were weighed and stored under 25° C./60% RH, 40° C./75% RH and 60° C./75% RH conditions, in opened packages, respectively. The purity and solid form were determined by UPLC and XRPD. The results are listed in Table 3, and the overlaid XRPD patterns of Form CSII before and after storage for stability evaluation are shown in FIG. 4.
as §2, with “CSIII” for “CSII”, “10,” for “3,”, “9.” for “4.”
as §2, with “CSIV” for “CSII”, “C./60%” for “C./60% RH, 40° C./75%”, “40°” for “60°”, “16,” for “3,”, “15.” for “4.”

[2] = Light stability (Chinese Pharmacopoeia method, purity by UPLC); conditions: light not less than 1.2×10^6 lux-hr, near-UV not less than 200 W-hr/m^2; for Purity change: 1 week; for Chemical purity (in words): about 1 week
Text: as §1
(§3) Certain amounts of Form CSII of the present disclosure and the prior art amorphous form were weighted and stored for about 1 week, in accordance with the method of the Chinese Pharmacopoeia, under the condition that the total illumination of the light source was not less than 1.2×106 lux-hr and the energy of the near-ultraviolet lamp was not less than 200 W-hr/m^2, the purities of the solids before and after storage were measured by UPLC and the results are shown in Table 5.
as §3, with “CSIII” for “CSII”, “1.2×10^6” for “1.2×106”, “12.” for “5.”
as §3, with “CSIV” for “CSII”, “1.2×10^6” for “1.2×106”, “18.” for “5.”

[3] = Stability at high temperature (80° C., 2 days, purity by UPLC); conditions: for Chemical purity (in words) / Purity change: 2 days; for Purity change: glass vial with cap
Protocol: as §1
Certain amounts of Form CSII of the present disclosure and the prior art amorphous form were weighted and stored at 80° C. for 2 days, and the purities of the solids before and after storage were determined by UPLC, the results are as shown in Table 4.
Certain amounts of Form CSIII of the present disclosure and the prior art amorphous form were weighted and stored at 80° C. for 2 days, and the purities of the solids before and after storage were determined by UPLC, the results are as shown in Table 11.
Certain amounts of Form CSIV of the present disclosure and the prior art amorphous form were stored at 80° C. for 2 days, and the purities of the solids before and after storage were determined by UPLC, the results are as shown in Table 17.

[4] = Hygroscopicity by DVS (0% RH-95% RH-0% RH at 25° C.); conditions: for Weight gain at 80% RH: DVS; for Weight gain at 80% RH / Hygroscopicity class: 25° C.; for Hygroscopicity class: weight gain at 80% RH
Protocol: DVS was measured via an SMS (Surface Measurement Systems Ltd.) intrinsic DVS instrument.
Parameters for DVS method are as follows: • Temperature: 25° C. • Gas and flow rate: nitrogen, 200 mL/min • RH range: 0% RH to 95% RH • ^1H NMR were collected from a Bruker Avance II DMX 400M HZ NMR spectrometer. 1-5 mg of sample was weighed and dissolved in 0.5 mL of deuterated dimethyl sulfoxide to obtain a solution with a concentration of 2-10 mg/mL.
Certain amounts of Form CSII of the present disclosure and the prior art amorphous form were sampled for hygroscopicity tests using DVS instrument. The weight change at each relative humidity was recorded during the cycle of 0% RH-95% RH-0% RH at 25° C.
Description and definition of hygroscopicity (general notice 9103 drug hygroscopicity test guidelines in 2020 edition of Chinese Pharmacopoeia, experimental condition: 25±1° C., 80±2% RH):
Certain amounts of Form CSIII of the present disclosure and the prior art amorphous form were sampled for hygroscopicity tests using DVS instrument. The weight change at each relative humidity was recorded during the cycle of 0% RH-95% RH-0% RH at 25° C.
Certain amounts of Form CSIV of the present disclosure and the prior art amorphous form were sampled for hygroscopicity tests using DVS instrument. The weight change at each relative humidity was recorded during the cycle of 0% RH-95% RH-0% RH at 25° C.

[5] = Stability of crystalline form in tablet formulation process (XRPD before and after); conditions: tablets per Table 7 and Table 8, XRPD
Protocol: According to the formulation and process in Table 7 and Table 8, the tablets were prepared with an appropriate amount of Form CSII of the present disclosure. XRPD was tested before and after formulation.
According to the formulation and process in Table 7 and Table 8, the tablets were prepared with an appropriate amount of Form CSIII of the present disclosure. XRPD was tested before and after formulation.
According to the formulation and process in Table 7 and Table 8, the tablets were prepared with an appropriate amount of Form CSIV of the present disclosure. XRPD was tested before and after formulation.

[6] = Grinding stability (manual grinding 5 minutes in a mortar, XRPD); conditions: ground manually 5 minutes in a mortar
Protocol: Form CSII was grounded manually for 5 minutes in a mortar. XRPD was tested before and after the grinding.
Form CSIII was grounded manually for 5 minutes in a mortar. XRPD was tested before and after the grinding.
Form CSIV was grounded manually for 5 minutes in a mortar. XRPD was tested before and after the grinding.

[7] = 25° C./60% RH, 6 months, open package
[8] = 40° C./75% RH, 6 months, open package
[9] = 60° C./75% RH, 1 month, open package
[10] = Initial, ICH Q3A (R2) thresholds
[11] = 40° C./75% RH, 2 months, open package

Chemical purity during storage ([1]; 25° C./60% RH): above 99.8%
Time for which the crystalline state doesn't change / form is stable ([1]; 25° C./60% RH): at least 6 months
Purity [1, 7]: 99.89%
Purity change [1, 7]: +0.03%
The number of the purities exceeding the qualification thresholds [1, 7]: 0
Time for which the crystalline state doesn't change / form is stable ([1]; 40° C./75% RH): at least 6 months
Chemical purity during storing ([1]; 40° C./75% RH and 60° C./75% RH): above 99.8%
Purity [1, 8]: 99.87%
Purity change [1, 8]: +0.01%
The number of the purities exceeding the qualification thresholds [1, 8]: 0
Time for which the crystalline state doesn't change ([1]; 60° C./75% RH): at least 1 month
Solid form and purity after storage ([1]; 60° C./75% RH, 1 month): remained basically unchanged
Purity [1, 9]: 99.82%
Purity change [1, 9]: −0.04%
The number of the purities exceeding the qualification thresholds [1, 9]: 0
Purity ([1]; Initial): 99.86%
The number of the purities exceeding the qualification thresholds [1, 10]: 0
Purity change [2]: −0.02%
Chemical purity (in words) [2]: basically remained unchanged
Time for which there is no change in the purity [2]: at least 1 week
Time for which chemical purity remains substantially unchanged [3]: at least 2 days
Chemical purity (in words) [3]: basically remained unchanged
Purity change [3]: +0.01%
Weight gain relative to that of the prior art ([4]; 80% RH): ⅙
Weight gain at 80% RH ([4]; 80% RH): 0.60%
Crystalline state after the DVS test ([4]; XRPD before and after DVS): remained unchanged
Hygroscopicity class [4]: slightly hygroscopic
Crystalline state after grinding [6]: remains unchanged
Compound: C=CC(=O)N1CCC[C@@H](n2c(=O)n(-c3ccc(Oc4ccccc4)cc3)c3c(N)nccc32)C1 [Form CSII, (R)-1-(1-acryloylpiperidin-3-yl)-4-amino-3-(4-phenoxyphenyl)-1H-imidazo[4,5-c] pyridin-2(3H)-one]
Impurity content versus qualification threshold ([1]; throughout the stability investigation processes): did not exceed the qualification thresholds; also recorded: did not exceed the qualificated threshold
Crystalline state after formulation process (mixed with excipients, tableted) [5]: remained unchanged; also recorded: did not change

Purity [1, 7]: 99.57%
Purity change [1, 7]: −0.23%
Solid form [1, 7]: Amorphous
The number of the purities exceeding the qualification thresholds [1, 7]: 1
Chemical purity after storage (in words) ([1]; 25° C./60% RH, 40° C./75% RH, listed as prior art amorphous form): decreased significantly
Chemical purity after storage (in words) ([1]; 25° C./60% RH, 40° C./75% RH, listed as prior art solid): decreases significantly
Purity decrease ([1]; 40° C./75% RH, 2 months): 2.18%
Purity [1, 11]: 97.62%
Purity change [1, 11]: −2.18%
Solid form [1, 11]: Amorphous
Purity decrease ([1]; 40° C./75% RH, 6 months): 3.46%
Purity [1, 8]: 96.34%
Purity change [1, 8]: −3.46%
Solid form [1, 8]: Amorphous
The number of the purities exceeding the qualification thresholds [1, 8]: 4
The number of the purities exceeding the qualification thresholds ([1]; 40° C./75% RH, 6 months, open package, listed as prior art amorphous form): four
The number of the purities exceeding the qualification thresholds ([1]; 40° C./75% RH, 6 months, open package, listed as prior art solid): four
Purity decrease ([1]; 60° C./75% RH, 1 month): over 6.3%
Purity [1, 9]: 93.48%
Purity change [1, 9]: −6.32%
Solid form [1, 9]: Amorphous
The number of the purities exceeding the qualification thresholds [1, 9]: 4
The number of the purities exceeding the qualification thresholds ([1]; 60° C./75% RH, 1 month, open package, listed as prior art amorphous form): four
The number of the purities exceeding the qualification thresholds ([1]; 60° C./75% RH, 1 month, open package, listed as prior art solid): four
Purity ([1]; Initial): 99.80%
Solid form ([1]; Initial): Amorphous
The number of the purities exceeding the qualification thresholds [1, 10]: 1
Purity change [2]: −0.11%
Chemical purity (in words) ([2]; listed as amorphous form): significant degradation
Purity change [3]: −1.16%
Chemical purity (in words) ([3]; listed as amorphous form): significant degradation
Weight gain at 80% RH ([4]; 80% RH, listed as Prior art solid): 3.69%
Weight gain at 80% RH ([4]; 80% RH, listed as The prior art amorphous form): 3.69%
Weight gain at 80% RH ([4]; 80% RH, listed as prior art amorphous form): 3.69%
Weight gain at 80% RH ([4]; 80% RH, listed as prior art solid): 3.69%
Hygroscopicity class ([4]; listed as prior art amorphous form): hygroscopic
Hygroscopicity class ([4]; listed as prior art solid): hygroscopic
Compound: C=CC(=O)N1CCC[C@@H](n2c(=O)n(-c3ccc(Oc4ccccc4)cc3)c3c(N)nccc32)C1 [Amorphous, (R)-1-(1-acryloylpiperidin-3-yl)-4-amino-3-(4-phenoxyphenyl)-1H-imidazo[4,5-c] pyridin-2(3H)-one, reference compound]
